From patent US11969002B2, “Savoury and mouthfulness taste enhancers” (LUCTA, S.A., priority 2018, dated 2024)

Test system: kokumi and/or umami taste
Experiment: Sensory test: taste threshold in model broth (duo-trio test, sensory panel)
Type: in vivo
Settings: for taste quality with the savoury taste threshold in model broth: descriptor in brackets after the threshold value; for minimal effective concentration: duo-trio-test ISO 10399:2017, model broth as constant blank, successive 1:2 dilutions in model broth, panel value averaged over three sessions, read-out: savoury taste threshold in model broth
Excerpt: This sensory test allowed evaluating the capacity of the compounds of formula (IA), (IB), (IC), (ID), (IE), (IF), (IG), (IH) and (IJ) as defined above to enhance taste; particularly kokumi and/or umami taste. This test allowed measuring the taste threshold of the mixtures comprising an amount from 86% to 99% by weight measured by quantitative proton-NMR of a compound of formula (IA), (IB), (IC), (ID), (IE), (IF), (IG), (IH) and (IJ) in model broth. The “taste threshold” refers to the minimum taste stimulus needed to detect the presence of a compound of formula (IA), (IB), (IC), (ID), (IE), (IF), (IG), (IH) and (IJ) of the present invention. The lower the taste threshold, the greater the capacity as enhancer; particularly greater the capacity as kokumi and/or umami enhancer.
Samples • Diluted samples of the mixtures comprising a compound of formula (IA), (IB), (IC), (ID), (IE), (IF), (IG) and (IJ) in an amount from 86% to 99% by weight measured by quantitative proton-NMR with model broth. • Model broth as constant […]. • Diluted samples of comparative samples with model broth: • Comparative compound 1: 5-(aminomethyl)-2-methylpyrimidin-4-amine (Berkshire, United Kingdom) • Comparative compound 2: (4-amino-2-methylpyrimidin-5-yl)methanol (Carbosynth-Berkshire, United Kingdom) • Comparative compound 3: Thiamine (Sigma-Aldrich, Steinheim, Germany)
Model broth: The model broth comprises the following composition: 1.9 g/L of sodium Sodium chloride (Sigma Aldrich, Steinheim, Germany); 1.9 g/L of mono sodium L-glutatmate (Merck, Darmastadt, Germany); 6.4 g/L of Maltodextrin (Sigma Aldrich, Steinheim, Germany); and 2.1 g/L yeast extract (Gistex GSX II, DSM Food specialities Savoury Ingredients; Delft, Netherlands). The model broth is prepared by mixing the ingrediets under agitation in an ultrasonic bath.
Diluted samples of the mixtures comprising a compound of formula (IA), (IB), (IC), (ID), (IE), (IF), (IG), (IH) and (IJ) in an amount from 86% to 99% by weight measured by quantitative proton-NMR of the present invention: The pH value of each individual mixture comprising an amount from 86% to 99% by weight measured by quantitative proton-NMR of a compound of formula (IA), (IB), (IC), (ID), (IE), (IF), (IG), (IH) and (IJ) was adjusted to 5.4 by the addition of the appropriate amount of formic acid. Each individual pH adjusted mixture thus obtained was diluted 1:2 successively with the model broth to obtain diluted solutions of the mixture comprising a compound of formula formula (IA), (IB), (IC), (ID), (IE), (IF), (IG), (IH) and (IJ) in a concentration from 10 μmol/L to 1000 μmol/L measured by quantitative proton-NMR.
Diluted samples of the comparative compounds 1-3. A mixture of each individual comparative compound 1-3 with model broth was prepared by successively dilution 1:2 of each individual comparative compound with model broth to obtain the diluted comparative solutions having a concentration from 10 μmol/L to 1000 μmol/L measured by quantitative proton-NMR of the comparative compound.
The diluted solutions of the present invention and the comparative solutions falling outside the scope of protection of the present invention obtained above were presented to the panelists with increasing concentrations of the tested solutions by means of the duo-trio-test according to ISO 10399:2017; using the model broth as constant blank. The panelists were asked to mark the differing samples.
The taste threshold is calculated by means of the geometric mean. The geometric mean of the last and the second last concentration was calculated and taken as the individual threshold. The threshold value of the sensory panel was approximated by averaging the threshold values of the individuals in three independent sessions. Values between individuals and separate sessions differed not more than two dilution steps (cf. Lawless, Harry T. “Sensory Evaluation of Food”. Springer, 2nd edition, 2010, pp. 125-145)

Structure (SMILES)	taste quality with the savoury taste threshold in model broth	minimal effective concentration
Cc1ncc(CSC[C@H](N)C(=O)O)c(N)n1 (single isomer, unassigned) [Mixture comprising (IA), S-((4-amino-2-methylpyrimidin-5-yl)methyl)-L-cysteine]	kokumi	120 µM
CC(=O)C(CCO)SCc1cnc(C)nc1N (single isomer, unassigned) [Mixture comprising (IB), 3-(((4-amino-2-methylpyrimidin-5-yl)methyl)thio)-5-hydroxy-pentan-2-one]	kokumi	40 µM
Cc1ncc(CSCC(N)C(=O)NCC(=O)O)c(N)n1 (single isomer, unassigned) [Mixture comprising (IC), S-((4-amino-2-methylpyrimidin-5-yl)methyl)cysteinylglycine]	kokumi	880 µM
Cc1ncc(CSCC2NC(=O)CNC2=O)c(N)n1 (single isomer, unassigned) [Mixture comprising (ID), 3-((((4-amino-2-methylpyrimidin-5-yl)methyl)thio)methyl)piperazine-2,5-dione]	kokumi	255 µM
CCC(SCc1cnc(C)nc1N)C(C)=O (single isomer, unassigned) [Mixture comprising (IE), 3-(((4-amino-2-methylpyrimidin-5-yl)methyl)thio)pentan-2-one]	kokumi	35 µM
Cc1ncc(CSc2ccoc2C)c(N)n1 (single isomer, unassigned) [Mixture comprising (IF), 2-methyl-5-(((2-methylfuran-3-yl)thio)methyl)pyrimidin-4-amine]	kokumi	50 µM
Cc1ncc(CSCc2ccco2)c(N)n1 (single isomer, unassigned) [Mixture comprising (IG), 5-(((furan-2-ylmethyl)thio)methyl)-2-methylpyrimidin-4-amine]	kokumi	120 µM
CSCc1cnc(C)nc1N (single isomer, unassigned) [Mixture comprising (IH), 2-methyl-5-((methylthio)methyl)pyrimidin-4-amine]	kokumi	70 µM
Cc1ncc(CS)c(N)n1 (single isomer, unassigned) [Mixture comprising (IJ), (4-amino-2-methylpyrimidin-5-yl)methanethiol]	kokumi	80 µM
Cc1ncc(CN)c(N)n1 [Comparative compound 1, 5-(aminomethyl)-2-methylpyrimidin-4-amine, reference compound]		> 1100 µM
Cc1ncc(CO)c(N)n1 [Comparative compound 2, (4-amino-2-methylpyrimidin-5-yl)methanol, reference compound]	kokumi	700 µM
Cc1ncc(C[n+]2csc(CCO)c2C)c(N)n1 [Comparative compound 3, Thiamine, reference compound]		1200 µM
